Assay results published in ChEMBL document CHEMBL1148275, “Discovery of thiophene-2-carboxylic acids as potent inhibitors of HCV NS5B polymerase and HCV subgenomic RNA replication. Part 1: Sulfonamides” (Bioorg Med Chem Lett, 2004).

Assays:
[1] = biological target: Genome polyprotein (Hepatitis C virus genotype 1a (isolate 1) (HCV), UniProt P26664); assay: Inhibition of HCV NS5B polymerase
[2] = system: Huh-7; assay: Concentration required to suppress [3H]thymidine uptake by 50% in Huh-7 cells; assay type: functional; conditions: Homo sapiens
[3] = system: Huh-7; assay: Inhibitory concentration against Huh-7 human hepatoma cell line that supports replication of subgenomic HCV RNA replicons (replicon cell line); assay type: functional, cell-based

Sequence of Genome polyprotein (P26664 2421-3011 limits assumed): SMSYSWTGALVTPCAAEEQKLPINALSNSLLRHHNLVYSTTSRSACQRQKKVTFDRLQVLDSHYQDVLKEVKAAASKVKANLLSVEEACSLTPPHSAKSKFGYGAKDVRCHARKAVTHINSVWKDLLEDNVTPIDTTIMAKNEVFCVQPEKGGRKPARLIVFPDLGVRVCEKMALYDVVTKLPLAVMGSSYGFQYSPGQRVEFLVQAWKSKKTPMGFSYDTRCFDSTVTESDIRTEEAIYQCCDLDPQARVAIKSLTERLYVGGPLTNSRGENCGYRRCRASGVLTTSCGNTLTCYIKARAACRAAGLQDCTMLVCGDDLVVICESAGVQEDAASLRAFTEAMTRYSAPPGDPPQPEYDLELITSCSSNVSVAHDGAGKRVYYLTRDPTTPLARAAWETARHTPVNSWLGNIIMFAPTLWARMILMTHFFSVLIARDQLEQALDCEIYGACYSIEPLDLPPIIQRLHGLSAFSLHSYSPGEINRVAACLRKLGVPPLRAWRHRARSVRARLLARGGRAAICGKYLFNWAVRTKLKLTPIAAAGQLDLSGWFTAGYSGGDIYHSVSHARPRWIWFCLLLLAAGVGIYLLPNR

| SMILES | IC50 [1] [µM] | CC50 [2] [µM] | IC50 [3] [µM] |
| --- | --- | --- | --- |
| CC(=O)c1ccc(-c2cc(NS(=O)(=O)c3ccccc3C)c(C(=O)O)s2)cc1 | 1.4 | 147 | 12 |
| Cc1ccc(S(=O)(=O)Nc2cc(-c3ccccc3)sc2C(=O)O)cc1 | 4.6 | 79 | 33 |
| Cc1ccccc1S(=O)(=O)Nc1cc(C(=O)O)sc1-c1ccccc1 | > 50 |  |  |
| Cc1ccccc1S(=O)(=O)Nc1cc(-c2ccccc2)sc1C(=O)O | 5.2 | 76 | 24 |
| Cc1ccc(S(=O)(=O)Nc2cc(-c3ccccc3)sc2C(=O)O)c(C)c1 | 1 | 57 |  |
| Cc1cc(S(=O)(=O)Nc2cc(-c3ccccc3)sc2C(N)=O)c(C)cc1Cl | 14 |  |  |
| Cc1ccc(C(=O)Nc2cc(-c3ccccc3)sc2C(=O)O)cc1 | 12 |  |  |
| O=C(Nc1ccc(Cl)cc1)Nc1cc(-c2ccccc2)sc1C(=O)O | > 50 |  |  |
| Cc1ccccc1S(=O)(=O)Nc1sc(-c2ccccc2)cc1C(=O)O | 20 |  |  |
| O=C(O)c1sc(-c2ccccc2)cc1NS(=O)(=O)c1ccc(Cl)cc1 | 4.1 | 92 | 77 |
| Cc1ccccc1C(=O)Nc1cc(-c2ccccc2)sc1C(=O)O | 14 |  |  |
| Cc1ccccc1S(=O)(=O)Nc1cc(-c2ccc(S(C)(=O)=O)cc2)sc1C(=O)O | 1.8 | > 200 | > 100 |
| Cc1cc(Cl)ccc1S(=O)(=O)Nc1cc(-c2ccccc2)sc1C(=O)O | 0.75 | 54 | 13 |
| Cc1cc(S(=O)(=O)Nc2cc(-c3ccccc3)sc2C(=O)O)c(C)cc1Cl | 5.4 | 80 | 14 |
| CC(=O)c1ccc(-c2cc(NS(=O)(=O)c3ccc(C)cc3C)c(C(=O)O)s2)cc1 | 0.39 | 100 | 8 |
| O=C(Nc1cc(-c2ccccc2)sc1C(=O)O)Oc1ccc(Cl)cc1 | 13 |  |  |
| Cc1cccc(S(=O)(=O)Nc2cc(-c3ccccc3)sc2C(=O)O)c1 | 7.4 | 112 | 100 |
| O=C(O)C(Cc1ccccc1)N(Cc1cccc(C(F)(F)F)c1)C(=O)c1ccc(Cl)cc1Cl (stereo not given) | 1.8 |  |  |
| Cc1ccc(C)c(S(=O)(=O)Nc2cc(-c3ccccc3)sc2C(=O)O)c1 | 13 | 24 | 11 |
